In data set [1] the target is T1, human GABAA α5β2γ2 (Homo sapiens, UniProt P18507+P31644). Briefly: biochemical.
The target of data set [2] is human GABAA-receptor complexes α1β2γ2, α2β2γ2, α3β2γ2, α5β2γ2.
Data set [3] concerns the target T2, human GABAA α2β2γ2 (Homo sapiens, UniProt P18507+P47869). Briefly: biochemical.
For data set [4], the target named is T3, human GABAA α1β2γ2 (Homo sapiens, UniProt P14867+P18507). Particulars: for Binding affinity normalized to GABAA α2 (ratio of Ki values): Ki α1β2γ2 / Ki α2β2γ2.
T3 sequence (P14867 28-456): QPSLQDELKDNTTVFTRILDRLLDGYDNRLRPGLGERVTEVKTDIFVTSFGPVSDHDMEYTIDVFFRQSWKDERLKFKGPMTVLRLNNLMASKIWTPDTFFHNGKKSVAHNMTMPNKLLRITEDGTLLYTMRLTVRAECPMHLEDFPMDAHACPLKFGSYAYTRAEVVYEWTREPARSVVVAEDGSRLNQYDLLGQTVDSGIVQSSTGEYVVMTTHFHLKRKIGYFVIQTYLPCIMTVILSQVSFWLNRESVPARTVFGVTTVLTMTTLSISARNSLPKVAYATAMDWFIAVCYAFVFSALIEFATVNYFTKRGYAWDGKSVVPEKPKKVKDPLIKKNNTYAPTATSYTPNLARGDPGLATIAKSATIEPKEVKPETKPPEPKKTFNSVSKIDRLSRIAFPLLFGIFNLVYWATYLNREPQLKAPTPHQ
T3 sequence (P47870 25-512 partner limits assumed): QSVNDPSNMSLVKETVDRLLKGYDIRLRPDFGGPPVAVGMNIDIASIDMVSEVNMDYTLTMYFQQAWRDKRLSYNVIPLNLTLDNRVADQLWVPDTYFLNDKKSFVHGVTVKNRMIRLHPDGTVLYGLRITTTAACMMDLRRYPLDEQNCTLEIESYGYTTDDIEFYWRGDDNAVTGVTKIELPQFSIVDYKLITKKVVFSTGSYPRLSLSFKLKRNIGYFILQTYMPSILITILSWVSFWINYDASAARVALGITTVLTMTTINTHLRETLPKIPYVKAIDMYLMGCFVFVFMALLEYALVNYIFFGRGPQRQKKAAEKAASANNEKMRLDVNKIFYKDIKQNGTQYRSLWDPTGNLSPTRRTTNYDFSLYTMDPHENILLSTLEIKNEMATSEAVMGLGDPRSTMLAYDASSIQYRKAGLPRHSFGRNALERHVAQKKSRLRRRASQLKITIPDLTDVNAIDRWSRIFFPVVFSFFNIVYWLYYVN
T3 sequence (P18507 40-475): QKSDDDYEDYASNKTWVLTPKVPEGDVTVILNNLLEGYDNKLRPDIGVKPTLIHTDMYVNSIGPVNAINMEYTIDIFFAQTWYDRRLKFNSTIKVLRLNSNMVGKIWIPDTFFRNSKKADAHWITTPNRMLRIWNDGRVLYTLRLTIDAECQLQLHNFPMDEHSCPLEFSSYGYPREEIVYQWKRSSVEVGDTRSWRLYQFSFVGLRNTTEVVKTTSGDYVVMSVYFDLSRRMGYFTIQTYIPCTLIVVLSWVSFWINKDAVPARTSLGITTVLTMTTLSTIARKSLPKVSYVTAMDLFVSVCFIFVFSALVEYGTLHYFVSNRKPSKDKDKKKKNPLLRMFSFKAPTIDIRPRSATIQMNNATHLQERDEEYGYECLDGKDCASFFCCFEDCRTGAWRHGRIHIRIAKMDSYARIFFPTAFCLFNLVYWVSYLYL
The target in data set [5] is T4, human GABAA α3β2γ2 (Homo sapiens, UniProt P18507+P34903). Conditions: Ki α3β2γ2 / Ki α2β2γ2.
T4 sequence (P34903 29-492): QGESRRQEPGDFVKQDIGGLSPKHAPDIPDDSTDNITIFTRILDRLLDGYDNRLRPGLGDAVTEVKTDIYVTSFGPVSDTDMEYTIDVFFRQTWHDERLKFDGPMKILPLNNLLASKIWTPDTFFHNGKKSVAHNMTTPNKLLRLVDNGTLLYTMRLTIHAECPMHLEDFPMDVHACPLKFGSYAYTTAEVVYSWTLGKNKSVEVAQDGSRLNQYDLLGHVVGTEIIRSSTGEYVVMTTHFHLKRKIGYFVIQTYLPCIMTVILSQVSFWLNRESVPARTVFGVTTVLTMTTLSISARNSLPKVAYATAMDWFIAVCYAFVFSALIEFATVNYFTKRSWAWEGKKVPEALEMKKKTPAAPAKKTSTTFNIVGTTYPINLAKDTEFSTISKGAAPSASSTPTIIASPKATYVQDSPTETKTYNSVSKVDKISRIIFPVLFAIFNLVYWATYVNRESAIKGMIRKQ
T4 sequence (P47870 25-512 partner limits assumed): as the sequence (P47870 25-512 partner limits assumed) above
T4 sequence (P18507 40-475): as the sequence (P18507 40-475) above
In data set [6] the target is T4, human GABAA α3β2γ2. The data set is described as follows: biochemical.
Data set [7] concerns the target T3, human GABAA α1β2γ2. The data set is described as follows: biochemical.
Data set [8] concerns the target T2, human GABAA α2β2γ2.
For data set [9], the target named is native GABAA receptors from rat-brain homogenates.
The target of data set [10] is T1, human GABAA α5β2γ2. Conditions: Ki α5β2γ2 / Ki α2β2γ2.
The subject of data set [11] is PTZ and audiogenic-induced seizures. Also noted: method as in PMID 10816315. Particulars: PTZ and audiogenic-induced seizures in mice; cited from earlier work.
In data set [12] the test system is pentylenetetrazole (PTZ)-induced seizures. Also noted: method as in PMID 17092983. Particulars: greatest diazepam dosage, cited from earlier work.
The test system of data set [13] is tonic convulsions following PTZ administration. Set-up: method as in PMID 11021797. Particulars: cited from earlier work; for percentage of mice convulsing: 3 mg/kg.
For data set [14], the target named is T1, human GABAA α5β2γ2.
For data set [15], the system named is refractory epilepsy patients. Set-up: method as in PMID 3828198. Particulars: dosages giving concentrations similar to those after clobazam dosing; cited from earlier work.
In data set [16] the target is T4, human GABAA α3β2γ2.
The conditions of data set [17]: cited from earlier work.
Data set [18] addresses T2, human GABAA α2β2γ2. The source holds these as a separate data set.

Consider seven molecules from article PMC3922815 (PLoS ONE, 2014).

Values joined by “and” are separate entries in the source; they are usually repeats but may differ in a detail not shown here. Equal values may be shown once. Read-outs that look alike come from different tables or passages of the source.

T1 sequence (P31644 32-462): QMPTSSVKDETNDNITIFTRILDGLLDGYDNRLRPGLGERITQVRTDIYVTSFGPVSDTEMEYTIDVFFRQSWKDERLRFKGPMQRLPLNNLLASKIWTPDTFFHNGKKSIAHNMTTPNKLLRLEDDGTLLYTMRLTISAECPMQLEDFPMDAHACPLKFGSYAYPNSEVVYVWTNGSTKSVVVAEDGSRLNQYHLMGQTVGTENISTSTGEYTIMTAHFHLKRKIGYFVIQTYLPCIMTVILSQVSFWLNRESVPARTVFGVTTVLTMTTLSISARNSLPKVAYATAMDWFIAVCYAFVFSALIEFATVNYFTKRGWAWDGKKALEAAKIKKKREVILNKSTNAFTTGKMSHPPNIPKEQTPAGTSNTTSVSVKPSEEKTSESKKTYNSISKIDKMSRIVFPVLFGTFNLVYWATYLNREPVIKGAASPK
T1 sequence (P47870 25-512 partner limits assumed): as the sequence (P47870 25-512 partner limits assumed) above
T1 sequence (P18507 40-475): as the sequence (P18507 40-475) above
T2 sequence (P47869 29-451): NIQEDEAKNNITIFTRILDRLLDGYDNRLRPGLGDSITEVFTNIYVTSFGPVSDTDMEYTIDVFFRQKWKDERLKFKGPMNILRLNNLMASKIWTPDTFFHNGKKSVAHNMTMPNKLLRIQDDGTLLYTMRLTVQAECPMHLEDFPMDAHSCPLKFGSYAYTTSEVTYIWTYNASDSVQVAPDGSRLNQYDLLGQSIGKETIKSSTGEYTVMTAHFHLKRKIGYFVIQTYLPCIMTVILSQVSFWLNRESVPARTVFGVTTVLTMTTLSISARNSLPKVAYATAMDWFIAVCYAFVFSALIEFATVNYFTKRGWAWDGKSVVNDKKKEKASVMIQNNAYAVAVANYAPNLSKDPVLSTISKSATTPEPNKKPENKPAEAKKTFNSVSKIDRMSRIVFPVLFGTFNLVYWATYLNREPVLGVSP
T2 sequence (P47870 25-512 partner limits assumed): as the sequence (P47870 25-512 partner limits assumed) above
T2 sequence (P18507 40-475): as the sequence (P18507 40-475) above

As for `Cc1ccc(-c2nc3ccc(C)cn3c2CC(=O)N(C)C)cc1` [Zolpidem], the Ki was 5.43 µM at human GABAA α5β2γ2 [1] and 0.03 to 5.43 µM in data set [2].
For `CN1C(=O)CC(=O)N(c2ccccc2)c2cc(Cl)ccc21` [Clobazam], the Ki at human GABAA α2β2γ2 [3] was 0.205 µM; at human GABAA α5β2γ2 [1], 0.331 µM; at human GABAA α3β2γ2 [6], 0.753 µM; at human GABAA α1β2γ2 [7] it was 0.519 µM; in [9], 0.151 µM. Also, the “Binding affinity normalized to GABAA α2 (ratio of Ki values)” value at human GABAA α1β2γ2 [4] amounted to 2.5; at human GABAA α3β2γ2 [5], 3.7; on human GABAA α2β2γ2 [8], 1; on human GABAA α5β2γ2 [10], 1.6.
Regarding `Cn1ncnc1COc1nn2c(-c3cc(F)ccc3F)nnc2cc1C(C)(C)C` [L-838,417], the anticonvulsant activity result in data set [11] is “retains anticonvulsant activity”.
Take `CN1C(=O)CN=C(c2ccccc2)c2cc(Cl)ccc21` [diazepam]: the “seizure level on the Racine scale” value in data set [12] (wild-type mice, reversed from 6) is on record as 1. Moreover, the “seizure scoring on the Racine scale” value in [12] (α2(H101R) mice) is “approximately 3.5”. Further, the results for the “percentage of mice convulsing” value in data set [13] (wild-type mice) and in data set [13] (α2(H101R) mice) were “approximately 20%” and “approximately 50%”, respectively. Besides, the “protection from tonic convulsions” value in [13] (10 and 30 mg/kg, both wild-type and α2(H101R) mice) is given as 100%.
With `O=C1CN=C(c2ccccc2Cl)c2cc([N+](=O)[O-])ccc2N1` [Clonazepam], the Ki was 0.00072 µM at human GABAA α2β2γ2 [3]; 0.00078 µM at human GABAA α5β2γ2 [1]; 0.00065 to 0.0022 µM in data set [2]; 0.00224 µM on human GABAA α3β2γ2 [6]; 0.00065 µM on human GABAA α1β2γ2 [7]; 0.000263 µM and 0.00026 µM in data set [9]. The “Binding affinity normalized to GABAA α2 (ratio of Ki values)” value at human GABAA α1β2γ2 [4] is on record as 0.9; on human GABAA α2β2γ2 [8], 1; at human GABAA α5β2γ2 [10], 1.1.
For the molecule `CN1C(=O)CN=C(c2ccccc2F)c2cc([N+](=O)[O-])ccc21` [^3H-flunitrazepam], the Kd in data set [9] (read-out: Kd (tracer equilibrium dissociation constant), saturation binding, rat-brain homogenates) was found to be 0.0015 ± 0.0002 µM.
For `O=C1CC(=O)N(c2ccccc2)c2cc(Cl)ccc2N1` [N-desmethylclobazam], the Ki on human GABAA α5β2γ2 [14] is 0.295 µM and 0.292 µM; on human GABAA α3β2γ2 [16], 0.661 µM and 0.668 µM; at human GABAA α1β2γ2 [4], 0.631 µM and 0.634 µM; in data set [9], 0.132 µM and 0.133 µM; on human GABAA α2β2γ2 [18] it was 0.148 µM and 0.147 µM. For the same molecule, the patients responding favorably in data set [15] was 8 of 9. In addition, the “Binding affinity normalized to GABAA α2 (ratio of Ki values)” value at human GABAA α1β2γ2 [4] was determined as 4.3; on human GABAA α3β2γ2 [5] it was 4.6; on human GABAA α2β2γ2 [8], 1; at human GABAA α5β2γ2 [10] it was 2.0. In data set [17] (humans), the half-life is listed as 79 h. In data set [17] (prolonged clinical use of CLB), the “concentration of N-CLB relative to the parent compound” value is given as “more than 2 fold”.

By Ki is commonly meant the dissociation constant of the complex between target and ligand, obtained from inhibition or displacement. A high value points to weaker binding. For orientation: Kd means the free concentration of one partner at which half of the binding sites on the other are occupied at equilibrium, for simple one-to-one binding. The term half-life denotes how long it takes for the measured level to halve.
